From the supplement of paper PMC11208160

Assay: recombinant barcode read abundance after kanamycin selection (control-corrected) (log10(CPM+1)); higher = more efficient recombination; sequences stand for … in AGTGCAGAGAAAATCGGCCAGTTTTCTCTGCCTGCAGTCCGCATGCCGT…ATTTATGCAGCGGACTGCCTTTCTCCCAAAGTGATAAACCGGACAGTATCATGGACCGGTTTTCCCGGTAATCCGTATTTGCAAGGTTGGTTTCACT; site = the 11-nt target
Summary of the method: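 Pooled oligos, each joining a target to an IS621 bridge RNA target-binding loop, were cloned and co-electroporated with a donor plasmid into E. coli. Selective plates carried chloramphenicol/ampicillin/kanamycin and 0.1 mM IPTG, while chloramphenicol/ampicillin LB agar served as control, with two replicates of each. Recombination efficiency rests on averaged, control-corrected counts per million of barcodes at recombinant junctions, shown as log10(CPM+1).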

| Sequence | recombinant barcode read abundance (log10) |
| --- | --- |
| GGGCGGATATGGGTTCTAACCTGTTGCGGTA [GGGCGGACTCC_LTGcore_TA_RTGcore_TA] (site GGGCGGACTCC) (LTG core: TA, RTG core: TA) | 0.0888 |
| GGGCGGATGTGGGTTCTAACCTGTTGCGGCA [GGGCGGACTCC_LTGcore_TG_RTGcore_TG] (site GGGCGGACTCC) (LTG core: TG, RTG core: TG) | 0.182 |
| GGGCGTGACTGGGTTCTAACCTGTTGCCTAG [GGGCGTGCTAG_LTGcore_AC_RTGcore_CT] (site GGGCGTGCTAG) (LTG core: AC, RTG core: CT) | 0.437 |
| GGGCGTGACTGGGTTCTAACCTGTTGCCTGT [GGGCGTGCTAG_LTGcore_AC_RTGcore_AC] (site GGGCGTGCTAG) (LTG core: AC, RTG core: AC) | 0.0793 |
| GGGCGTGAGTGGGTTCTAACCTGTTGCCTCT [GGGCGTGCTAG_LTGcore_AG_RTGcore_AG] (site GGGCGTGCTAG) (LTG core: AG, RTG core: AG) | 0.523 |
| GGGCGTGATTGGGTTCTAACCTGTTGCCTAG [GGGCGTGCTAG_LTGcore_AT_RTGcore_CT] (site GGGCGTGCTAG) (LTG core: AT, RTG core: CT) | 0.308 |
| GGGCGTGCGTGGGTTCTAACCTGTTGCCTCG [GGGCGTGCTAG_LTGcore_CG_RTGcore_CG] (site GGGCGTGCTAG) (LTG core: CG, RTG core: CG) | 0.0415 |
| GGGCGTGCTTGGGTTCTAACCTGTTGCCTAA [GGGCGTGCTAG_LTGcore_CT_RTGcore_TT] (site GGGCGTGCTAG) (LTG core: CT, RTG core: TT) | 0.104 |
| GGGCGTGCTTGGGTTCTAACCTGTTGCCTAC [GGGCGTGCTAG_LTGcore_CT_RTGcore_GT] (site GGGCGTGCTAG) (LTG core: CT, RTG core: GT) | 0.107 |
| GGGCGTGCTTGGGTTCTAACCTGTTGCCTAG [GGGCGTGCTAG_LTGcore_CT_RTGcore_CT] (site GGGCGTGCTAG) (LTG core: CT, RTG core: CT) | 1.41 |
| GGGCGTGCTTGGGTTCTAACCTGTTGCCTAT [GGGCGTGCTAG_LTGcore_CT_RTGcore_AT] (site GGGCGTGCTAG) (LTG core: CT, RTG core: AT) | 1.05 |
| GGGCGTGCTTGGGTTCTAACCTGTTGCCTGA [GGGCGTGCTAG_LTGcore_CT_RTGcore_TC] (site GGGCGTGCTAG) (LTG core: CT, RTG core: TC) | 1.02 |
| GGGCGTGCTTGGGTTCTAACCTGTTGCCTGT [GGGCGTGCTAG_LTGcore_CT_RTGcore_AC] (site GGGCGTGCTAG) (LTG core: CT, RTG core: AC) | 0.536 |
| GGGCGTGCTTGGGTTCTAACCTGTTGCCTTT [GGGCGTGCTAG_LTGcore_CT_RTGcore_AA] (site GGGCGTGCTAG) (LTG core: CT, RTG core: AA) | 0.509 |
| GGGCGTGTCTGGGTTCTAACCTGTTGCCTGA [GGGCGTGCTAG_LTGcore_TC_RTGcore_TC] (site GGGCGTGCTAG) (LTG core: TC, RTG core: TC) | 0.157 |
| GGGCGTGTGTGGGTTCTAACCTGTTGCCTCA [GGGCGTGCTAG_LTGcore_TG_RTGcore_TG] (site GGGCGTGCTAG) (LTG core: TG, RTG core: TG) | 0.0289 |
| GGTGCCCACTGGGTTCTAACCTGTTGCCGAG [GGTGCCCCTCG_LTGcore_AC_RTGcore_CT] (site GGTGCCCCTCG) (LTG core: AC, RTG core: CT) | 0.416 |
| GGTGCCCATTGGGTTCTAACCTGTTGCCGAG [GGTGCCCCTCG_LTGcore_AT_RTGcore_CT] (site GGTGCCCCTCG) (LTG core: AT, RTG core: CT) | 0.111 |
| GGTGCCCCTTGGGTTCTAACCTGTTGCCGAA [GGTGCCCCTCG_LTGcore_CT_RTGcore_TT] (site GGTGCCCCTCG) (LTG core: CT, RTG core: TT) | 0.481 |
| GGTGCCCCTTGGGTTCTAACCTGTTGCCGAG [GGTGCCCCTCG_LTGcore_CT_RTGcore_CT] (site GGTGCCCCTCG) (LTG core: CT, RTG core: CT) | 1.46 |
| GGTGCCCCTTGGGTTCTAACCTGTTGCCGCA [GGTGCCCCTCG_LTGcore_CT_RTGcore_TG] (site GGTGCCCCTCG) (LTG core: CT, RTG core: TG) | 0.0728 |
| GGTGCCCCTTGGGTTCTAACCTGTTGCCGTT [GGTGCCCCTCG_LTGcore_CT_RTGcore_AA] (site GGTGCCCCTCG) (LTG core: CT, RTG core: AA) | 0.0623 |

| Sequence | recombinant barcode read abundance (log10) |
| --- | --- |
| GTCGCCCACTGGGTTCTAACCTGTTGCTAGT [GTCGCCCCTTA_LTGcore_AC_RTGcore_AC] (site GTCGCCCCTTA) (LTG core: AC, RTG core: AC) | 0.348 |
| GTCGCCCATTGGGTTCTAACCTGTTGCTAAT [GTCGCCCCTTA_LTGcore_AT_RTGcore_AT] (site GTCGCCCCTTA) (LTG core: AT, RTG core: AT) | 0.182 |
| GTCGCCCCTTGGGTTCTAACCTGTTGCTAGT [GTCGCCCCTTA_LTGcore_CT_RTGcore_AC] (site GTCGCCCCTTA) (LTG core: CT, RTG core: AC) | 0.644 |
| GTCGCCCCTTGGGTTCTAACCTGTTGCTATC [GTCGCCCCTTA_LTGcore_CT_RTGcore_GA] (site GTCGCCCCTTA) (LTG core: CT, RTG core: GA) | 0.434 |
| GTCGCCCTATGGGTTCTAACCTGTTGCTAAG [GTCGCCCCTTA_LTGcore_TA_RTGcore_CT] (site GTCGCCCCTTA) (LTG core: TA, RTG core: CT) | 0.0747 |
| GTCGCCCTGTGGGTTCTAACCTGTTGCTAAG [GTCGCCCCTTA_LTGcore_TG_RTGcore_CT] (site GTCGCCCCTTA) (LTG core: TG, RTG core: CT) | 0.405 |
| TAAGAATACTGGGTTCTAACCTGTTGCCTAG [TAAGAATCTAG_LTGcore_AC_RTGcore_CT] (site TAAGAATCTAG) (LTG core: AC, RTG core: CT) | 0.0833 |
| TAAGAATCCTGGGTTCTAACCTGTTGCCTGG [TAAGAATCTAG_LTGcore_CC_RTGcore_CC] (site TAAGAATCTAG) (LTG core: CC, RTG core: CC) | 0.0748 |
| TAAGAATCGTGGGTTCTAACCTGTTGCCTAG [TAAGAATCTAG_LTGcore_CG_RTGcore_CT] (site TAAGAATCTAG) (LTG core: CG, RTG core: CT) | 0.349 |
| TAAGAATCTTGGGTTCTAACCTGTTGCCTGG [TAAGAATCTAG_LTGcore_CT_RTGcore_CC] (site TAAGAATCTAG) (LTG core: CT, RTG core: CC) | 0.39 |
| TAAGAATCTTGGGTTCTAACCTGTTGCCTTG [TAAGAATCTAG_LTGcore_CT_RTGcore_CA] (site TAAGAATCTAG) (LTG core: CT, RTG core: CA) | 0.89 |
| TAAGAATGTTGGGTTCTAACCTGTTGCCTAC [TAAGAATCTAG_LTGcore_GT_RTGcore_GT] (site TAAGAATCTAG) (LTG core: GT, RTG core: GT) | 0.128 |
| TAAGAATGTTGGGTTCTAACCTGTTGCCTAG [TAAGAATCTAG_LTGcore_GT_RTGcore_CT] (site TAAGAATCTAG) (LTG core: GT, RTG core: CT) | 0.127 |
| TAAGAATTATGGGTTCTAACCTGTTGCCTTA [TAAGAATCTAG_LTGcore_TA_RTGcore_TA] (site TAAGAATCTAG) (LTG core: TA, RTG core: TA) | 0.111 |
| TAGAGGGAGTGGGTTCTAACCTGTTGCGGAG [TAGAGGGCTCC_LTGcore_AG_RTGcore_CT] (site TAGAGGGCTCC) (LTG core: AG, RTG core: CT) | 0.0663 |
| TAGAGGGAGTGGGTTCTAACCTGTTGCGGCT [TAGAGGGCTCC_LTGcore_AG_RTGcore_AG] (site TAGAGGGCTCC) (LTG core: AG, RTG core: AG) | 0.0923 |
| TAGAGGGCATGGGTTCTAACCTGTTGCGGAG [TAGAGGGCTCC_LTGcore_CA_RTGcore_CT] (site TAGAGGGCTCC) (LTG core: CA, RTG core: CT) | 2.42 |
| TAGAGGGCCTGGGTTCTAACCTGTTGCGGGG [TAGAGGGCTCC_LTGcore_CC_RTGcore_CC] (site TAGAGGGCTCC) (LTG core: CC, RTG core: CC) | 0.132 |
| TAGAGGGCGTGGGTTCTAACCTGTTGCGGCG [TAGAGGGCTCC_LTGcore_CG_RTGcore_CG] (site TAGAGGGCTCC) (LTG core: CG, RTG core: CG) | 0.0165 |
| TAGAGGGCTTGGGTTCTAACCTGTTGCGGAA [TAGAGGGCTCC_LTGcore_CT_RTGcore_TT] (site TAGAGGGCTCC) (LTG core: CT, RTG core: TT) | 0.746 |
| TAGAGGGCTTGGGTTCTAACCTGTTGCGGAC [TAGAGGGCTCC_LTGcore_CT_RTGcore_GT] (site TAGAGGGCTCC) (LTG core: CT, RTG core: GT) | 1.38 |
